Measurements from patent publication US4839466A, “Insulin activity messengers” (The Rockefeller University, priority 1987, dated 1989).

Experiments:
[1] = system: BC3 Hl cells; experiment: Insulin-stimulated labeling/hydrolysis of glycolipid (PI-glycan) precursor and water soluble products in BC3 Hl cells; assay type: cell-based, murine
Procedure: FIG. 7--SAX HPLC of Radiolabeled Mediators from Insulin Treated Cells. BC3 Hl cells were cultured at 37° C. in Dulbecco's Minimal Essential Medium in the presence of 20% NU serum (Collaborative Research) on collagen coated 10 mm miniwells. Cells (1×10^6 /well) were preincubated with 10 uCi (A) [2,6^3 H]myoinositol or (B) [1,6^3 H]glucosamine (New England Nuclear) for 20 hours in the presence of 20% Nu Serum. Insulin was added to cells in monolayer in serum free media at a final concentration of 10 nM. Reactions were terminated by removal of media and addition of 1 ml chloroform/methanol/1N HCl (200:100:1), followed by addition of 0.5 ml 10 mM formic acid. Organic and aqueous phases were separated by centrifugation at 500 x g for 5 min.
The water soluble labeled products were purified by a modification of a previously described protocol for purification of cAMP phosphodiesterase (PDE) modulators. The aqueous phases were chromatographed on DEAE-Cellulose, eluted with 0.25 TEA-formate, pH 3.75. This fraction was eluted through a C-18 reversed phase sepak in the same buffer. Following lyophilization, the solution was eluted through Dowex 50WX-4 in 50 mM TEA-formate. pH 3.0. After exposure to activated charcoal, samples were chromatographed on an SAX HLPC column (Whatman), eluted with a linear, 15 minute gradient of 60% methanol (A) to 0.5M TEA-formate, pH 3.75 (B) at 1 ml/minute. One ml fractions were counted. The two peaks of insulin stimulated radioactivity coeluted with similarly purified, myocyte derived PDE modulating activities.
FIG. 9--Thin Layer Chromatography of the Radiolabeled Precursor from Insulin Treated Cells. (A) [^3 H]inositol and B) [^3 H]glucosaminelabeled cells were treated with or without 10 nM insulin. Following extraction and phase separation, the organic phase were dried under N2, resuspended in chloroform/methanol/H2 O (9:7:2); and spotted on oxalate impregnated Silica gel G plates. These were twice developed in chloroform/acetone/methanol/glacial acetic acid/H2 O (10:4:2:2:1). One cm regions were scraped and radioactivity determined by scintillation counting. Phosphoinositides were identified by iodine staining of standards.
FIG. 11--Time Course of Precursor Hydrolysis by Insulin. Cells prelabeled with [^3 H]inositol were treated with 10 nM insulin for the designated intervals. Cells were extracted and phase separated as detailed in FIG. 7. Aqueous phases were chromatographed up to and including the SAX HPLC step (upper panel). Results reflect counts from a combination of Peaks I and II. The ratio of counts in these peaks were unchanged over the time course. The precursor residing in the organic phases was identified by the peak on TLC with an Rf =0.22, corresponding to the species depleted by PI-PLC (FIG. 10).
(§1) Following preincubations with the appropriate isotopes, cells were resuspended in DMEM without serum and treated with 10 nM insulin at the designated intervals. Reactions were terminated by the addition of 1 ml chloroform/methanol/1N HCl (200:100:1), followed by 0.5 ml 10 mM formic acid. Following centrifugation at 500 x g for 5 min., the upper phase was discarded. For phospholipid analyses, the lower, organic phase was dried under N2, resuspended in chloroform/methanol/H2 O (9:7:2) and spotted on oxalate impregnated silica gel G plates. These were sequentially developed in chloroform/acetone/methanol/glacial acidic acid/H2 O (10:4:2:2:1) and chloroform/methanol/4N NH4 OH (45:35:10). One cm regions were scraped and eluted with chloroform/methanol (2:1) and counted. Phosphoinositide standards were identified by iodine staining.

[2] = system: BC3 Hl cells; experiment: Diacylglycerol and phosphatidic acid production in labeled BC3 Hl myocytes; assay type: cell-based, murine
Procedure: FIG. 12--Time Course of Diacylglycerol and Phosphatidic Acid Production in Response to Insulin. Myocytes were incubated for 20 hrs. in serum free DMEM with [9,10^3 H]myristic acid (New England Nuclear), complexed 1:1 to bovine serum albumin. Insulin was added to cells in fresh media for the designated intervals, and reactions were stopped by removal of media and addition of 1 ml chloroform/methanol/1N HCl (200:100:1). 0.6ml H2 O was added and upper aqueous phases were discarded following centrifugation at 500×g for 5 minutes. The lower, organic phases were dried under N2 and resuspended in 1 ml diethyl ether followed by addition of 1 […]. The upper ether phase was aspirated and the lower phase reextracted with 1 ml diethyl ether. The combined ether phases, containing diacylglycerol, were dried under N2, resuspended in chloroform and spotted on silica gel G plates which were preactivated at 60° C. for 1 hr. Plates were twice developed in petroleum ether/diethyl ether/glacial acetic acid (70:30:2). Five ug of unlabeled dimyristoylglycerol were added to each sample. Spots were visualized by iodine staining. To the lower aqueous phases from the ether extraction were added 1 ml of chloroform/methanol (2:1). Following centrifugation, the resulting upper aqueous phases were discarded and the lower organic phases dried under N2, resuspended in chloroform/methanol/H2 O (9:7:2) and spotted on "soft plus" silica gel plates. These were developed in chloroform/pyridine/70% formic acid (50:30:7), and phosphatidic acid was identified by an iodine stained standard. Lipids were scraped and radioactivity determined in a liquid scintillation counter.
BC3 Hl cells were cultured on collagen coated multiwell plates or petri dishes in Dulbecco's minimal essential medium (DMEM) supplemented with 20% Nu serum or 10% fetal calf serum. Cells were grown to maximal density and confluence, at which time they become responsive to insulin. Radiolabeled precursors were added for 20 hrs. in serum-free medium. [^3 H]Myristic and arachidonic acids were complexed 1:1 to bovine serum albumin prior to addition.
as §1
For analysis of neutral lipids, the chloroform/methanol organic phases were dried under N2 and resuspended in 1 ml diethyl ether followed by addition of 1 ml 50 mM formic acid. The upper ether phase was aspirated and the lower aqueous phase was reextracted with 1 ml diethyl ether. The pooled ether phases were dried under N2, resuspended in chloroform and spotted on silica gel G plates which were preactiviated at 60° C. for 1 hr. Plates were twice developed in petroleum ether/diethyl ether/glacial acetic acid (70:30:2). Five ug of unlabeled dimyristoyl glycerol, myristic acid and monomyristoyl glycerol were added as carriers to each sample.

## Insulin: monocomponent bovine insulin
[1]; 10 nM insulin, after 30 sec
  production of [3H]inositol containing products (Peaks I and II combined), share of the maximal effect: Seventy
[1]; 10 nM insulin, after the initial decrease
  increase of [3H]inositol radioactivity in the precursor over control levels: 60%
[1]; 10 nM insulin, at 30 sec
  decrease in [3H]inositol counts in the precursor: 20%
[1]; Example IV, after 30 seconds of insulin exposure
  decrease in [3H]inositol labeling of the PI-glycan: 20%
[1]; Example IV, by 1 min. of insulin
  decrease in [3H]myristate labeling of the PI-glycan: 60%
[1]; Example IV, following the initial decrease
  gradual increase in [3H]inositol counts of the PI-glycan: 40%
[1]; Example IV, insulin
  time until [3H]myristate labeling of the PI-glycan returned to basal levels: 20 to 30 min
[1]; insulin 10 nM for 10 min., TLC
  increase of [3H]glucosamine incorporation in the precursor glycolipid peak: approximately 40%
  increase of [3H]inositol incorporation in the precursor glycolipid peak: approximately 40%
[2]
  generation of [3H]stearyl diacylglycerol: no detectable effect
[2]; [3H]myristate labeled cells
  change in [3H]myristoyl diacylglycerol: rapid increase
  time of maximal increase in labeled diacylglycerol: 1 min
[2]; cells incubated with [3H]arachidonic acid
  change in [3H]arachidonyl diacylglycerol: slow increase
[2]; insulin, achieved by 5 minutes
  increase in levels of [3H]myristate phosphatidic acid: 2 fold
[2]; insulin, by 5-10 minutes
  maximal increase of labeled diacylglycerol over basal: 50%
[2]; insulin, within 1 minute
  increase in [3H]myristate diacylglycerol: 40%
